{"source": "ChEMBL document CHEMBL1151215", "about": "“Isotsaokoin, an antifungal agent from Amomum tsao-ko” (2004)", "key": {"[1]": {"test_system": "Trichophyton mentagrophytes", "experiment": "Antifungal activity against Trichophyton mentagrophytes KCTC 6085 at 60 ug/disk after 4 days by paper-disk agar diffusion assay", "format": "functional, organism-based"}, "[2]": {"test_system": "Trichophyton mentagrophytes", "experiment": "Antifungal activity against Trichophyton mentagrophytes KCTC 6085 at 20 ug/disk after 4 days by paper-disk agar diffusion assay", "format": "functional", "settings": "KCTC 6085, 96 h, read-out: IZ"}, "[3]": {"test_system": "Trichophyton mentagrophytes", "experiment": "Antifungal activity against Trichophyton mentagrophytes KCTC 6085 at 40 ug/disk after 4 days by paper-disk agar diffusion assay", "format": "functional", "settings": "KCTC 6085, 96 h, read-out: IZ"}}, "note": "Calls of active or inactive are those of the source. No cut-off for these calls is given here.", "data": [{"compound": "OCC1=CC[C@@H](O)[C@H]2CCC[C@@H]12", "values": [{"measurement": "Activity", "setting": "[1]", "result": "inactive"}]}, {"compound": "O=CC1=CC[C@@H](O)[C@@H]2CCC[C@H]12", "note": "(relative stereo) [ISOTSAOKOIN]", "values": [{"measurement": "zone of inhibition at 20 µg/disc", "setting": "[2]", "result": 1.5, "unit": "mm"}, {"measurement": "zone of inhibition at 40 µg/disc", "setting": "[3]", "result": 2, "unit": "mm"}]}, {"compound": "C[C@@H]1[C@H](O)[C@@H](C)/C=C/C=C/C=C/C=C/C=C/C=C/C=C/[C@H](O[C@@H]2O[C@H](C)[C@@H](O)[C@H](N)[C@@H]2O)C[C@@H]2O[C@](O)(C[C@@H](O)C[C@@H](O)[C@H](O)CC[C@@H](O)C[C@@H](O)CC(=O)O[C@H]1C)C[C@H](O)[C@H]2C(=O)O", "note": "[AMPHOTERICIN B]", "values": [{"measurement": "zone of inhibition at 20 µg/disc", "setting": "[2]", "result": 2.5, "unit": "mm"}, {"measurement": "zone of inhibition at 40 µg/disc", "setting": "[3]", "result": 3, "unit": "mm"}]}]}
